PMC10454726 (International Journal of Molecular Sciences, 2023)

Experiments:
female Wistar rats = experiment: Acute oral toxicity (OECD guideline 425); format: in vivo; conditions: for toxic effects at the macroscopic level (necropsy images): 175, 550, and 2000 mg/kg; for AOT (acute oral toxicity): female Wistar rats
Experimental: (§1) They were kept in standard polypropylene boxes under controlled temperature (24 ± 4 °C) on a 12 h light/dark cycle and provided conventional food (formula 5001, Rat Chow) and purified water ad libitum. […] At the end of the experiment, the animals were taken to the humanitarian endpoint by the intraperitoneal (ip) administration of 75 mg/kg of sodium pentobarbital to perform a necropsy in the bioterium of FESC, UNAM. During the necropsy, blood serum was extracted to quantify glucose, triacylglycerides, cholesterol, and insulin. The study was conducted based on the guidelines of the Declaration of Helsinki and approved by the Institutional Review Board: Internal Committee for the Care and Use of Experimentation Animals (CICUAE, according to the initials in Spanish, C23_02 on March 2023) of the FESC UNAM (Mexico). It complies with the Mexican norm for this matter (NOM-062-ZOO-1999, Technical Specifications for the Production, Care, and Use of Laboratory Animals, SAGARPA), as well as the Guide for the Care and Use of Laboratory Animals of the National Research Council and National Institutes of Health (NIH Publications No. 8023, revised 1978).
The female Wistar rats (n = 3) were used to obtain the AOT based on the procedures of Guide Number 425 of the Organization for Economic Cooperation and Development (OECD). The rats were closely monitored for 48 h after receiving oral doses of FC-114 or FC-122. Rat 1 received 175 mg/kg, rat 2 received 550 mg/kg, and rat 3 received 2000 mg/kg. They were then observed for 14 days until a necropsy to check for any toxic effects.

[1] = tested on: streptozotocin-induced diabetic rats; experiment: Animal weight, food and water consumption in streptozotocin-induced diabetic rats; format: in vivo, Wistar rat
Experimental: as §1, with “Six female (three for each compound: FC-114 and FC-122) (220 ± 10 g, for the acute toxicity assay) and forty male (215 ± 20 g, for the pharmacologic study) albino Wistar rats were acquired from the Isolation and Animal Facility Unit, Facultad de Estudios Superiores Cuautitlán (FESC), Universidad Nacional Autónoma de México (UNAM). They” for “They”
(§2) After a week of acclimation, 35 male Wistar rats were given a single intraperitoneal dose of STZ (Sigma Chemical Co. Toluca, Estado de México, Mexico) at a dosage of 45 mg/kg of body weight, after fasting for 12 h overnight with free access to water. To prevent initial drug-induced hypoglycemia mortality, these animals were given a 10% sucrose solution 24 h after administration. STZ was dissolved in 0.1 M of sodium citrate buffer (pH 4.5) and administered in a final volume of 5 mL/kg. A week after STZ injection, diabetes in streptozotocin rats was confirmed by measuring fasting blood glucose (by glucose oxidase method). Animals with a blood glucose (tail vein) above 126 mg/dL were considered diabetic and used for the experiment to create groups 2, 3, 4, 5, 6, and 7 [1, 13]. Blood glucose levels were measured using a glucometer (Accu-Chek Active, Roche, Mannheim, Germany) and reactive strips (Accu-Chek Active Glucose test strips, Roche). The presence of hyperglycemia and insulin level confirmed a model very similar to T2D in humans. For the pharmacological study, the final number of animals was 35 male rats, with 3 rats being sacrificed during the treatment stage. One was administered with FC-114 and two with acarbose. The first rat was damaged during oral glucose administration in the OGTT at week 5, and the other rats had gastrointestinal complications in week 7.
(§3) The diabetic animals in group 2 (untreated) were given 4% v/v aqueous EtOH solution (vehicle of treatments) in a volume of 6.5 mL/kg body weight. The other groups (3–7) received different treatments for 14 days (weeks 5 to 7). […] All of the treatments were at equimolar doses of PIO and adjusted to the weekly weight of each rat. […] The commercial PIO tablet (30 mg) was crushed in 7.5 mL of vehicle and given to each animal in 4.0 mg/mL of suspension. The FC-114 and FC-122 suspensions were created at 6.2 and 6.0 mg/mL, respectively. The commercial acarbose tablet (50 mg) was crushed in 7.5 mL of the vehicle and given to each animal in a suspension of 6.6 mg/mL. Each suspension was used within 2 days of its preparation, and the administration volume was near to 2.5 mL for each rat.

[2] = Cytotoxic effect on Human Foreskin fibroblasts (SRB); format: cell-based; conditions: HFF-1 cells
Experimental: However, at high concentrations, they can be harmful to cells. For humans, doses less than 100 mg/day are considered safe. […] Therefore, we conducted cytotoxicity assays on Human Foreskin fibroblasts (HFF-1) and an AOT on female Wistar rats to assess their safety.
In a 96-well plate, 7000 cells per well of Human Foreskin fibroblasts (HFF-1) were cultured. […] Untreated cells were also included as a negative control. At the end of the incubation period, the cell contents were precipitated with 50 µL of a 50% aqueous solution of trichloroacetic acid (TCA) at 4 °C for 1 h. The supernatant was discarded and washed 5 times with distilled water. Afterward, the plates were allowed to dry at room temperature. The cell contents were incubated with 100 µL of a 0.04% sulforhodamine B (SRB) solution for 1 h at room temperature. The excess SRB was removed by washing with a 1% aqueous acetic acid solution. […] With the data obtained, the viability of treated cells was calculated by comparing the control without treatment. CC50 value was determined by employing BioStat Pro 5.9.8 software (AnalystSoft Inc., Brandon, FL, USA).

[3] = tested on: streptozotocin-induced diabetic rats; experiment: Weekly fasting glucose in streptozotocin-induced diabetic rats; format: in vivo, Wistar rat; conditions: after 7 and 14 days of treatment (weeks 6 and 7)
Experimental: as §2, §3

[4] = after 7 days of treatment (weeks 5 to 6)

SMILES	toxic effects at the macroscopic level (necropsy images) (female Wistar rats)	Toxic Effects (female Wistar rats; dose 175 mg/kg oral)	Weight Gain for 2 Weeks (female Wistar rats; dose 175 mg/kg oral)	Toxic Effects (female Wistar rats; dose 550 mg/kg oral)	Weight Gain for 2 Weeks (female Wistar rats; dose 550 mg/kg oral)	Toxic Effects (female Wistar rats; dose 2000 mg/kg oral)	Weight Gain for 2 Weeks (female Wistar rats; dose 2000 mg/kg oral)	AOT (acute oral toxicity) (female Wistar rats)	food intake [1, 4]	water consumption ([1]; after 14 days of administration)	CC50 at 48 h ([2]; HFF-1 human foreskin fibroblasts)	fasting glucose levels [3]	animal weight compared to the untreated group (T2D) ([1]; 14 days of treatment, weeks 5 to 7)	food intake ([1]; after 14 days of treatment (weeks 6 to 7))	CC50 at 48 h [2]
Cc1ccc(-n2ncc3c2C(C)(C)[C@@H]2CC[C@]4(C)[C@H](C(=O)C=C5[C@@H]6C[C@@](C)(C(=O)O)CC[C@]6(C)CC[C@]54C)[C@@]2(C)C3)cc1 [FC-122]	No toxic effects were observed	None	23.5 g	None	25.2 g	None	26.4 g	higher than 2000 mg/kg	reduced food intake to near-normal levels	decreased water consumption compared to acarbose and FC-114	68.4 ± 1 µM	halt the continuous increase of glucose levels			
CC1(C)c2[nH]c3ccc(C(F)(F)F)cc3c2C[C@]2(C)[C@H]3C(=O)C=C4[C@@H]5C[C@@](C)(C(=O)O)CC[C@]5(C)CC[C@@]4(C)[C@]3(C)CC[C@@H]12 [FC-114]	No toxic effects were observed	None	22.8 g	None	23.4 g	None	21.5 g	higher than 2000 mg/kg	maintained their increased food consumption			halt the continuous increase of glucose levels	difference in weight	tended to decrease toward normal levels	59.5 ± 3 µM
